The text below walks through data of ChEMBL document CHEMBL3507680, “University of Dundee, Gates Library screen for HepG2 cell viability”.

A short description of the data set: Human HepG2 cell viability assay in 384 well format. It counts as toxicity, cell-based. The arrangement: dose 125 nL, time 70.5 hour; cytotoxicity at 70.5 h: concentration not given beside the values. The following applies: HepG2 cells, read-out: Inhibition.

Molecules are shown by their SMILES.

For the molecule `Cc1nc(C)n(CC2CCCN(CCOc3cccc(F)c3)C2)n1` (centres undefined), the cytotoxicity at 70.5 h is 0.903%.

As to `Clc1cccc(OCCCN2CCOC(Cn3cncn3)C2)c1` (centres undefined), the cytotoxicity at 70.5 h was found to be 1.4%.

Turning to `Cc1nn(C)c(N(C)C)c1CNCc1cccnc1N(C)C`, the cytotoxicity at 70.5 h is 23.9%.

`Cc1nn(C)c(N(C)C)c1CNCc1cccnc1OC(C)C`: the cytotoxicity at 70.5 h came to 21.9%.

In the case of `Cc1ccc(N2CCCC(NCc3ccccn3)C2)nn1` (centres undefined), the cytotoxicity at 70.5 h is 25.6%.

As for `CCOc1ncccc1CNCc1c(C)nn(C)c1N(C)C`, the cytotoxicity at 70.5 h worked out at 24.1%.

For `Cc1ccc(N2CCCC(NCc3ccc(C)s3)C2)nn1` (centres undefined), the cytotoxicity at 70.5 h was 3.59%.

Regarding `Cc1nc2ccccc2nc1CN1CCOC(Cn2cccn2)C1` (centres undefined), the cytotoxicity at 70.5 h was -9.86%.

Turning to `CCc1nc(CN2CCCC(Cn3nc(C)nc3C)C2)no1` (centres undefined), the cytotoxicity at 70.5 h is -9.12%.

In the case of `O=C(NCc1ccccc1F)NCC(O)c1cccc(F)c1` (centres undefined), the cytotoxicity at 70.5 h is -10.3%.

With `CC(C)C(=O)NC1CCCN(C(=O)c2ccccc2O)C1` (centres undefined), the cytotoxicity at 70.5 h is -7.34%.

Consider `CC(C)C(=O)NC1CCCN(C(=O)c2cc(Cl)ccc2O)C1` (centres undefined), for which the cytotoxicity at 70.5 h amounted to 15.5%.

In the case of `COc1ccc(C(=O)N2CCCC(NC(=O)C(C)C)C2)c(O)c1` (centres undefined), the cytotoxicity at 70.5 h was found to be 2.73%.

For the molecule `O=C(NCCc1ccccc1F)NCC(O)c1cccc(F)c1` (centres undefined), the cytotoxicity at 70.5 h was -7.16%.

As to `CCN(Cc1ccccc1Cl)Cn1nc(C)c2c(C)onc2c1=O`, the cytotoxicity at 70.5 h is -6.62%.

Turning to `CCN(Cc1cccc(C)c1)Cn1nc(C)c2c(C)onc2c1=O`, the cytotoxicity at 70.5 h was -10.8%.

On to `O=C(NCc1cccc(F)c1)NCC(O)c1cccc(F)c1` (centres undefined), for which the cytotoxicity at 70.5 h stood at 20.3%.

In the case of `c1ccc(-c2nc(CN3CCOC(Cn4cccn4)C3)co2)cc1` (centres undefined), the cytotoxicity at 70.5 h amounted to 4.42%.

On to `Cc1ccc(-c2nc(CN3CCOC(Cn4cccn4)C3)co2)cc1` (centres undefined), for which the cytotoxicity at 70.5 h was -5.71%.

On to `c1csc(-c2nc(CN3CCOC(Cn4cccn4)C3)cs2)c1` (centres undefined), for which the cytotoxicity at 70.5 h is -8.48%.

As for `Cc1cc(C)n(C2CCCN(C(=O)c3cn4cccnc4n3)C2)n1` (centres undefined), the cytotoxicity at 70.5 h is -6.47%.

With `Cc1cccc(N(C)S(=O)(=O)c2cc(C(=O)O)cs2)c1`, the cytotoxicity at 70.5 h turned out to be 14.1%.

For `CN1CCCc2cc(CNC(=O)c3cccnc3O)ccc21`, the cytotoxicity at 70.5 h is -1.9%.

For `CCOc1cccc2c1OCC(C(=O)NS(=O)(=O)c1ccc(Br)s1)=C2`, the cytotoxicity at 70.5 h was found to be 14.6%.

For `O=C(c1cnc(-c2ccco2)s1)N1CCCCC1Cn1cccn1` (centres undefined), the cytotoxicity at 70.5 h is -9.96%.

On to `O=C(c1ccc(Cn2cccc2)cc1)N1CCN(CCO)CC1`, for which the cytotoxicity at 70.5 h is -4.52%.

Turning to `Cc1nc(C)c(CN2CCOC(CNc3cccnn3)C2)s1` (centres undefined), the cytotoxicity at 70.5 h was -5.6%.

On to `Cc1ccc(NC2CCN(C(=O)CCCn3ccnc3C)CC2)nn1`, for which the cytotoxicity at 70.5 h was -7.72%.

For `CCC(O)CN1CCN(C(=O)c2ccc(Cn3cccc3)cc2)CC1` (centres undefined), the cytotoxicity at 70.5 h is -11.6%.

As for `CCc1cnc(CN(C)C2CCN(CCn3cc(C#N)cn3)C2)o1` (centres undefined), the cytotoxicity at 70.5 h turned out to be 16.4%.

Consider `COCc1nc(CN2CCOC(CNc3cccnn3)C2)cs1` (centres undefined), for which the cytotoxicity at 70.5 h was -11.6%.

Regarding `CCc1nc(CN(C)C2CCN(CCn3cccn3)C2)no1` (centres undefined), the cytotoxicity at 70.5 h was -15.3%.

Consider `CCOc1ncccc1C(=O)N1CCCC1Cn1cc(C)cn1` (centres undefined), for which the cytotoxicity at 70.5 h was -5.13%.

As for `CN(C)Cc1cccc(C(=O)N2CCCC(n3cncn3)C2)c1` (centres undefined), the cytotoxicity at 70.5 h is -12.1%.

Take `CC(=O)N1CCCN(C(=O)c2cnn(-c3ccccc3Cl)c2)CC1`: the cytotoxicity at 70.5 h was -17.1%.

As for `Cc1cc(C)n(C2CCCN(C(=O)c3cccc4c3OCO4)C2)n1` (centres undefined), the cytotoxicity at 70.5 h is -10.8%.

Turning to `O=C(Cc1ccc2c(c1)CCO2)N1CCCC1c1noc(C2CC2)n1` (centres undefined), the cytotoxicity at 70.5 h stood at 9.85%.

For the molecule `CN(C)c1ccc(CNC(=O)NCCc2cn3ccccc3n2)cn1`, the cytotoxicity at 70.5 h is -3.45%.

On to `CCn1cnnc1CNC(=O)Cc1ccc2c(c1)OCCO2`, for which the cytotoxicity at 70.5 h was -14.5%.

In the case of `CN(C)C(=O)CN1CCN(C(=O)c2cnn(-c3ccccc3Cl)c2)CC1`, the cytotoxicity at 70.5 h is -13.6%.

On to `O=C(c1cnc(-c2cnccn2)s1)N1CCCC(n2cccn2)C1` (centres undefined), for which the cytotoxicity at 70.5 h was -6.04%.

Regarding `CN1CCN(C(=O)c2cnn(-c3ccccc3Cl)c2)CC1`, the cytotoxicity at 70.5 h was -8.29%.

In the case of `COC(=O)c1cccc(C(=O)N2CCCC(n3cncn3)C2)c1` (centres undefined), the cytotoxicity at 70.5 h was -8.97%.

For `CCc1nc(CN2CCOC(CNc3cccnn3)C2)cs1` (centres undefined), the cytotoxicity at 70.5 h was determined as 10.3%.

Take `Cc1nc(CCNC(=O)NCc2cccc(N(C)C)n2)cs1`: the cytotoxicity at 70.5 h was -12.8%.

In the case of `CCc1nccn1C1CCCN(C(=O)c2cncnc2C)C1` (centres undefined), the cytotoxicity at 70.5 h came out at 16%.

As for `CCCn1nc2c(cc1=O)CN(CCN1CCCC1=O)CC2`, the cytotoxicity at 70.5 h is -10.7%.

On to `Cc1cc(C)n(CC2CCCN2CC(=O)N(C)CCC#N)n1` (centres undefined), for which the cytotoxicity at 70.5 h was -8.11%.

On to `Cc1cc(C)n(CC2CCCN2CC(=O)N(C)Cc2ccco2)n1` (centres undefined), for which the cytotoxicity at 70.5 h is -8.36%.

For the molecule `FC(F)(F)c1cccc(CNc2nccc(C(F)(F)F)n2)c1`, the cytotoxicity at 70.5 h is -3.61%.

In the case of `O=C(NCCCn1nc2ccccn2c1=O)Nc1ccc(F)cc1F`, the cytotoxicity at 70.5 h is -8.62%.

Take `Cc1cnn(CC2CN(CC(=O)NCCc3cccs3)CCO2)c1` (centres undefined): the cytotoxicity at 70.5 h was -2.04%.

As for `Cc1cccc(-c2noc(CN3CCCC3Cn3cccn3)n2)c1` (centres undefined), the cytotoxicity at 70.5 h is 8.86%.

For the molecule `Cc1cnn(CC2CN(CC(=O)N(C)c3nccs3)CCO2)c1` (centres undefined), the cytotoxicity at 70.5 h is -2.03%.

In the case of `Cc1cc(C)n(CCC(=O)N2CCCC(n3cncn3)C2)n1` (centres undefined), the cytotoxicity at 70.5 h was 25.8%.

`OC(COCc1ccccc1F)CN1CCc2c(ncn2C2CC2)C1` (centres undefined): the cytotoxicity at 70.5 h was -2.37%.

For `CCc1nc(CC(=O)N2CCCC2Cn2cccn2)cs1` (centres undefined), the cytotoxicity at 70.5 h was found to be 2.11%.

For `Cc1nc(C)n(CC2CCCN2Cc2cn3c(C)cccc3n2)n1` (centres undefined), the cytotoxicity at 70.5 h is -4.2%.

As for `OC(CNCCn1cccn1)c1ccc(F)c(F)c1` (centres undefined), the cytotoxicity at 70.5 h stood at 0.389%.

For the molecule `CC(Cn1cccn1)NC(=O)N1CCN(Cc2cccs2)CC1` (centres undefined), the cytotoxicity at 70.5 h worked out at 17%.

For the molecule `CC(Cn1cccn1)NC(=O)NCc1ccccn1` (centres undefined), the cytotoxicity at 70.5 h was -3.27%.

For `Cc1cc(NC(=O)NCC2CCOC2)no1` (centres undefined), the cytotoxicity at 70.5 h is -11.6%.

Consider `O=C(NCCCN1CCc2ccccc2C1)c1cccnc1O`, for which the cytotoxicity at 70.5 h was -11.9%.

With `Cc1cc(C(=O)NCc2ccc(N3CCCC(C(N)=O)C3)cc2)[nH]n1` (centres undefined), the cytotoxicity at 70.5 h was -2.55%.

For `Cc1occc1C(=O)NCc1ccc(N2CCCC(C(N)=O)C2)cc1` (centres undefined), the cytotoxicity at 70.5 h is -6.48%.

Consider `CC(Cn1cccn1)NC(=O)NCc1cccs1` (centres undefined), for which the cytotoxicity at 70.5 h was -16.6%.

Regarding `CS(=O)(=O)c1ccccc1C(=O)NCCCN1CCc2ccccc2C1`, the cytotoxicity at 70.5 h amounted to 18.5%.

Turning to `Cc1cn2c(n1)CCC(NC(=O)c1cc(Br)cn1C)C2` (centres undefined), the cytotoxicity at 70.5 h stood at 1.7%.

Take `Cc1cc(OCC(=O)N2CCCC(c3ccn[nH]3)C2)no1` (centres undefined): the cytotoxicity at 70.5 h is -5.93%.

For the molecule `Cc1cc(C(=O)NC2CCc3nc(C)cn3C2)[nH]n1` (centres undefined), the cytotoxicity at 70.5 h was -5.51%.

Turning to `Cc1cn2c(n1)CCC(NC(=O)c1c[nH]c(C)n1)C2` (centres undefined), the cytotoxicity at 70.5 h was -5.66%.

Turning to `Cn1nc2c(cc1=O)CN(Cc1nc(C(C)(C)C)no1)CC2`, the cytotoxicity at 70.5 h is -5.46%.

Turning to `Cc1cc(CN(C)C(=O)c2ccc(Cl)c(S(C)(=O)=O)c2)no1`, the cytotoxicity at 70.5 h stood at 13.8%.

Turning to `COc1cccc(C(=O)NCCCN2CCc3ccccc3C2)c1OC`, the cytotoxicity at 70.5 h was -11.3%.
